Each block holds one compound with its values, some of them ahead of it.
Tested on: LG0703-F948-PDC complex spheroid viability
Test: Anticancer human tumor LG0703-F948-PDC patient-derived lung adenocarcinoma cell line growth inhibition [RAS]
Conditions: for IC50: curve of first compound; for viability, T/C: stronger effect = lower value
In short: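 Tumour cells grown as complex spheroids with HUVEC endothelial cells and mesenchymal stem cells, treated with RAS pathway inhibitor combinations. Each agent spans half-log steps from near clinical Cmax, or 10 microM where Cmax is unknown.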

[1] = second compound 0.000949 µM, first compound 0.0316 µM
[2] = second compound 0.000949 µM, first compound 0.1 µM
[3] = second compound 0.000949 µM, first compound 0.316 µM
[4] = second compound 0.000949 µM, first compound 1 µM
[5] = second compound 0.003 µM, first compound 0.0316 µM
[6] = second compound 0.003 µM, first compound 0.1 µM
[7] = second compound 0.003 µM, first compound 0.316 µM
[8] = second compound 0.003 µM, first compound 1 µM
[9] = second compound 0.00949 µM, first compound 0.0316 µM
[10] = second compound 0.00949 µM, first compound 0.1 µM
[11] = second compound 0.00949 µM, first compound 0.316 µM
[12] = second compound 0.00949 µM, first compound 1 µM
[13] = second compound 0.03 µM, first compound 0.0316 µM
[14] = second compound 0.03 µM, first compound 0.1 µM
[15] = second compound 0.03 µM, first compound 0.316 µM
[16] = second compound 0.03 µM, first compound 1 µM
[17] = second compound 0.0949 µM, first compound 0.0316 µM
[18] = second compound 0.0949 µM, first compound 0.1 µM
[19] = second compound 0.0949 µM, first compound 0.316 µM
[20] = second compound 0.0949 µM, first compound 1 µM
[21] = second compound 0.3 µM, first compound 0.0316 µM
[22] = second compound 0.3 µM, first compound 0.1 µM
[23] = second compound 0.3 µM, first compound 0.316 µM
[24] = second compound 0.3 µM, first compound 1 µM
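Note: spheroids exposed to agents for 7 days.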
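Throughout, for viability, T/C: 100% = DMSO vehicle wells.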

- IC50 (second compound 0.000949 µM): > 10000 nM
- IC50 (second compound 0.003 µM): > 10000 nM
- IC50 (second compound 0.00949 µM): < 31.6 nM
- IC50 (second compound 0.03 µM): < 31.6 nM
- IC50 (second compound 0.0949 µM): < 31.6 nM
- IC50 (second compound 0.3 µM): < 31.6 nM
Compound: C[C@@H](NC(=O)c1ncnc(N)c1Cl)c1ncc(C(=O)Nc2cc(C(F)(F)F)c(Cl)cn2)s1 + CCn1c(-c2cc(N3CCN(C)CC3)cnc2C(C)OC)c2c3cc(ccc31)-c1csc(n1)CC(NC(=O)C1CC1C)C(=O)N1CCCC(N1)C(=O)OCC(C)(C)C2
- viability, T/C [1]: 74.7%
- viability, T/C [2]: 78.6%
- viability, T/C [3]: 79.2%
- viability, T/C [4]: 76.4%
- viability, T/C (second compound 0.000949 µM, first compound 3.16 µM): 83.9%
- viability, T/C (second compound 0.000949 µM, first compound 10 µM): 75.6%
- viability, T/C [5]: 54.3%
- viability, T/C [6]: 46.9%
- viability, T/C [7]: 52.8%
- viability, T/C [8]: 65.1%
- viability, T/C (second compound 0.003 µM, first compound 3.16 µM): 55.5%
- viability, T/C (second compound 0.003 µM, first compound 10 µM): 68.9%
- viability, T/C [9]: 31.6%
- viability, T/C [10]: 28.8%
- viability, T/C [11]: 28.1%
- viability, T/C [12]: 30.3%
- viability, T/C (second compound 0.00949 µM, first compound 3.16 µM): 33.8%
- viability, T/C (second compound 0.00949 µM, first compound 10 µM): 39.8%
- viability, T/C [13]: 17.5%
- viability, T/C [14]: 17.6%
- viability, T/C [15]: 16.1%
- viability, T/C [16]: 17%
- viability, T/C (second compound 0.03 µM, first compound 3.16 µM): 21.2%
- viability, T/C (second compound 0.03 µM, first compound 10 µM): 21.5%
- viability, T/C [17]: 15.8%
- viability, T/C [18]: 9.99%
- viability, T/C [19]: 11.8%
- viability, T/C [20]: 13.7%
- viability, T/C (second compound 0.0949 µM, first compound 3.16 µM): 15.9%
- viability, T/C (second compound 0.0949 µM, first compound 10 µM): 13.7%
- viability, T/C [21]: 11.7%
- viability, T/C [22]: 11.5%
- viability, T/C [23]: 13.1%
- viability, T/C [24]: 9.77%
- viability, T/C (second compound 0.3 µM, first compound 3.16 µM): 14.9%
- viability, T/C (second compound 0.3 µM, first compound 10 µM): 15.3%

- IC50 (second compound 0.000949 µM): > 1000 nM
- IC50 (second compound 0.003 µM): < 3.16 nM
- IC50 (second compound 0.00949 µM): < 3.16 nM
- IC50 (second compound 0.03 µM): < 3.16 nM
- IC50 (second compound 0.0949 µM): < 3.16 nM
- IC50 (second compound 0.3 µM): < 3.16 nM
Compound: C=CC(=O)N1CCN(c2nc(OCC3CCCN3C)nc3c(F)c(-c4nc(N)cc(C)c4C(F)(F)F)c(Cl)cc23)C(C)C1 (centres undefined) + CCn1c(-c2cc(N3CCN(C)CC3)cnc2C(C)OC)c2c3cc(ccc31)-c1csc(n1)CC(NC(=O)C1CC1C)C(=O)N1CCCC(N1)C(=O)OCC(C)(C)C2
- viability, T/C (second compound 0.000949 µM, first compound 0.00316 µM): 68%
- viability, T/C (second compound 0.000949 µM, first compound 0.01 µM): 75.1%
- viability, T/C [1]: 71%
- viability, T/C [2]: 66.5%
- viability, T/C [3]: 69.9%
- viability, T/C [4]: 62.6%
- viability, T/C (second compound 0.003 µM, first compound 0.00316 µM): 45.5%
- viability, T/C (second compound 0.003 µM, first compound 0.01 µM): 40.5%
- viability, T/C [5]: 43.4%
- viability, T/C [6]: 44%
- viability, T/C [7]: 47.3%
- viability, T/C [8]: 49%
- viability, T/C (second compound 0.00949 µM, first compound 0.00316 µM): 24.9%
- viability, T/C (second compound 0.00949 µM, first compound 0.01 µM): 26.1%
- viability, T/C [9]: 27.9%
- viability, T/C [10]: 17.7%
- viability, T/C [11]: 25.9%
- viability, T/C [12]: 25.5%
- viability, T/C (second compound 0.03 µM, first compound 0.00316 µM): 13.4%
- viability, T/C (second compound 0.03 µM, first compound 0.01 µM): 14.6%
- viability, T/C [13]: 16.2%
- viability, T/C [14]: 13.1%
- viability, T/C [15]: 18.8%
- viability, T/C [16]: 13.9%
- viability, T/C (second compound 0.0949 µM, first compound 0.00316 µM): 14.2%
- viability, T/C (second compound 0.0949 µM, first compound 0.01 µM): 16.3%
- viability, T/C [17]: 11.3%
- viability, T/C [18]: 11%
- viability, T/C [19]: 15.2%
- viability, T/C [20]: 15.9%
- viability, T/C (second compound 0.3 µM, first compound 0.00316 µM): 10.4%
- viability, T/C (second compound 0.3 µM, first compound 0.01 µM): 8.07%
- viability, T/C [21]: 9.51%
- viability, T/C [22]: 11.9%
- viability, T/C [23]: 11.5%
- viability, T/C [24]: 10.8%

Reference: PubChem BioAssay AID2060890 (Molecular Pharmacology Branch, DTP, NCI, 2025)
